Consider 8 compounds from patent publication US10131679B2, “Substituted dihydropyrrolopyrazole compound” (UBE INDUSTRIES, LTD., priority 2014, dated 2018).

Structures can show the parent of a compound that is named as a salt. A value given as a limit tells only on which side of the number the result lay.

The target in assay [1] is T1, CDK7 (Homo sapiens, UniProt P50613).
T1 construct: purchased Carna Biosciences, Inc. 04-108
In words: CDK7 enzyme inhibition test. Type of assay: biochemical. Conditions: Ki=IC50/(1+S/Km); 33P bound to MBP, [γ-33P]ATP, 30° C. for 20 minutes; read-out: Ki value of CDK7 inhibitory activity. The procedure:
CDK7 Enzyme Inhibition Test
The preparation of a buffer solution was performed by mixing a N-2-hydroxyethylpiperazine-N′-2-ethanesulfonic acid buffer solution (HEPES buffer solution) (pH 7.4), dithiothreitol (DTT), Triton X-100, and magnesium chloride (MgCl2). A 500 μM [γ-^33P]ATP solution was used by diluting a 10 mM ATP solution and a commercially available [γ-^33P]ATP solution (manufactured by PerkinElmer, Inc., Code No. NEG-302H) with the buffer solution. A CDK7 solution was used by diluting commercially available CDK7 (manufactured by Carna Biosciences, Inc., Catalog No. 04-108) with the buffer solution. A substrate solution was used by diluting myelin basic protein (MBP) with the buffer solution. As for the preparation of a reaction solution, the buffer solution, the 500 μM [γ-^33P]ATP solution, the CDK7 solution, and the substrate solution were mixed at 4° C. to obtain a reaction solution.
CDK7 enzyme reaction was performed by adding 5 μL of a test compound solution prepared with 10% dimethyl sulfoxide (DMSO)/90% injectable distilled water, and 45 μL of the reaction solution to a 1.5 mL microtube at 4° C. and reacting in the microtube at 30° C. for 20 minutes in a water bath incubator. After the reaction, a 10% aqueous trichloroacetic acid (TCA) solution was added to each microtube while cooled to 4° C., and mixed to terminate the reaction. The resultant was left standing at 4° C. for 10 minutes and then centrifuged in a centrifuge, and the supernatant was discarded. Next, a 2% aqueous TCA solution was added, mixed, and then centrifuged in a centrifuge, and the supernatant was discarded. This washing operation was performed twice. After the washing, precipitates were dissolved in a 1 N aqueous sodium hydroxide (NaOH) solution, and the energy quantity (radioactivity) of the reaction product was measured with a liquid scintillation counter.
The calculation of the inhibitory activity of the test compound against CDK7 was performed as a test compound concentration inhibiting 50% of the amount of ^33P bound to MBP (IC50 value) by using EXSUS (version 8.0.0 or version 8.0.1, manufactured by CAC Exicare Corp.).
(§1) The calculation of a Ki value was performed according to the following calculation expression. S means the concentration of ATP contained in the reaction solution, and Km means a Michaelis-Menten constant. Ki=IC50/(1+S/Km)

In assay [2] the test system is human large intestine cancer cell line (HCT-116). Put plainly: Human large intestine cancer (HCT-116) cell growth inhibition test. Conditions: 72 h, HCT-116, culture for 3 days, sulforhodamine B absorbance. Type of assay: cell-based. The procedure:
Human Large Intestine Cancer (HCT-116) Cell Growth Inhibition Test
The measurement of a human large intestine cancer cell growth inhibitory effect was carried out by modifying the method of Simak et al. (Cancer Research, 69, 6208 (2009)).
A human large intestine cancer cell line (HCT-116) (manufactured by DS Pharma Biomedical Co., Ltd., Cat. No. EC91091005) was cultured in McCoy's 5a (manufactured by GIBCO/Thermo Fisher Scientific, Inc., REF. 16600-082) medium containing 10% FBS (manufactured by GIBCO/Thermo Fisher Scientific, Inc., REF. 10082-147) and 1% penicillin/streptomycin/amphotericin B (manufactured by GIBCO/Thermo Fisher Scientific, Inc., REF. 15240-096) and inoculated at 1.0×10^3 cells/well in a 96-well plate (manufactured by Corning Inc., REF. 353072). After overnight culture in a carbon dioxide incubator, it was replaced with a fresh McCoy's 5a medium containing 10% FBS on the next day, and a test compound dissolved in DMSO (manufactured by Wako Pure Chemical Industries, Ltd., Code No. 043-07216) (final DMSO concentration: 0.1%) was added and left standing in a carbon dioxide incubator. After culturing for 3 days, the absorbance of each well was measured by using In Vitro Toxicology Assay Kit Sulforhodamine B based (manufactured by Sigma-Aldrich Co. LLC., Pcode 1001910706).
The rate of inhibition of cell growth at each concentration was calculated from the test compound concentration and the absorbance of sulforhodamine B, and the concentration of the test compound necessary for inhibiting 50% of cell growth (IC50 value) was calculated by using EXSUS (version 8.0.0 or version 8.0.1, manufactured by CAC Exicare Corp.).

For assay [3], the target named is T2, CDK2 (Homo sapiens, UniProt P24941).
T2 construct: purchased Invitrogen Corp. PV3267
In words: CDK2 enzyme inhibition test. Conditions: Ki=IC50/(1+S/Km); 33P bound to MBP, [γ-33P]ATP, 30° C. for 20 minutes; read-out: Ki value of CDK2 inhibitory activity. It counts as biochemical. The procedure:
CDK2 Enzyme Inhibition Test
The preparation of a buffer solution was performed by mixing a HEPES buffer solution (pH 7.4), DTT, Triton X-100, and MgCl2. A 500 μM [γ-^33P]ATP solution was used by diluting a 10 mM ATP solution and a commercially available [γ-^33P]ATP solution (manufactured by PerkinElmer, Inc., Code No. NEG-302H) with the buffer solution. A CDK2 solution was used by diluting commercially available CDK2 (manufactured by Invitrogen Corp., Catalog No. PV3267) with the buffer solution. A substrate solution was used by diluting MBP with the buffer solution. As for the preparation of a reaction solution, the buffer solution, the 500 μM [γ-^33P]ATP solution, the CDK2 solution, and the substrate solution were mixed at 4° C. to obtain a reaction solution.
(§2) CDK2 enzyme reaction was performed by adding 5 μL of a test compound solution prepared with 10% DMSO/90% injectable distilled water, and 45 μL of the reaction solution in a 1.5 mL microtube at 4° C. and reacting in the microtube at 30° C. for 20 minutes in a water bath incubator. After the reaction, a 10% aqueous TCA solution was added to each microtube while cooled to 4° C., and mixed to terminate the reaction. The resultant was left standing at 4° C. for 10 minutes and then centrifuged in a centrifuge, and the supernatant was discarded. Next, a 2% aqueous TCA solution was added, mixed thereto, and then centrifuged in a centrifuge, and the supernatant was discarded. This washing operation was performed twice. After the washing, precipitates were dissolved in a 1 N aqueous NaOH solution, and the radioactivity was measured with a liquid scintillation counter.
The calculation of the inhibitory activity of the test compound against CDK2 was performed as a test compound concentration inhibiting 50% of the amount of ^33P bound to MBP (IC50 value) by using EXSUS (version 8.0.0 or version 8.0.1, manufactured by CAC Exicare Corp.).
as §1

For assay [4], the target named is T3, PAK4 (Homo sapiens, UniProt O96013).
T3 construct: purchased Invitrogen Corp. PV4212
T3 sequence (O96013 whole entry): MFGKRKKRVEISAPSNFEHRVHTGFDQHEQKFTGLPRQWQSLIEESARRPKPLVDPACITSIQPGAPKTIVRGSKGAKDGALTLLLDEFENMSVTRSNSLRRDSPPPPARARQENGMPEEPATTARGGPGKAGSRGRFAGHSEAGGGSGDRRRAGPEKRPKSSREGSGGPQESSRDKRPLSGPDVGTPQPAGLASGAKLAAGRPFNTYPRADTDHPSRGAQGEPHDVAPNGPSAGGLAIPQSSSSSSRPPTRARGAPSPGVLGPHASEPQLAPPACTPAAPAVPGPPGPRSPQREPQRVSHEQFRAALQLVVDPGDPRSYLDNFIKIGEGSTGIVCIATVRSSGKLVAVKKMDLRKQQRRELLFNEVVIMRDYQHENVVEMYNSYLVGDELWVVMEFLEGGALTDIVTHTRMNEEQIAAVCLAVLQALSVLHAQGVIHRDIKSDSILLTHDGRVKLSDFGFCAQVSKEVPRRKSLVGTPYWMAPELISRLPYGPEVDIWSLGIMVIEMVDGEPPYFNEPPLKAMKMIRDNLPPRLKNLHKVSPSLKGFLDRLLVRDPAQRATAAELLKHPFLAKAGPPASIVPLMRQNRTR
Put plainly: PAK4 enzyme inhibition test. Type of assay: biochemical. Conditions: Ki=IC50/(1+S/Km); 33P bound to MBP, [γ-33P]ATP, 30° C. for 20 minutes; read-out: Ki value of PAK4 inhibitory activity. On the procedure:
PAK4 Enzyme Inhibition Test
The preparation of a buffer solution was performed by mixing a trishydroxyaminomethane buffer solution (Tris buffer solution) (pH 7.5), DTT, Triton X-100, MgCl2, ethylene glycol bis(β-aminoethyl ether)-N,N,N′,N′-tetraacetic acid (EGTA), (3-glycerol phosphate, and sodium orthovanadate(V). A 40 μM [γ-^33P]ATP solution was used by diluting a 10 mM ATP solution and a commercially available [γ-^33P]ATP solution (manufactured by PerkinElmer, Inc., Code No. NEG-302H) with the buffer solution. A PAK4 solution was used by diluting commercially available PAK4 (manufactured by Invitrogen Corp., Catalog No. PV4212) with the buffer solution. A substrate solution was used by diluting MBP with the buffer solution. As for the preparation of a reaction solution, the buffer solution, the 40 μM [γ-^33P]ATP solution, the PAK4 solution, and the substrate solution were mixed at 4° C. to obtain a reaction solution.
as §2, with “PAK4” for “CDK2”, “mixed,” for “mixed thereto,”
The calculation of the inhibitory activity of the test compound against PAK4 was performed as a test compound concentration inhibiting 50% of the amount of ^33P bound to MBP (IC50 value) by using EXSUS (version 8.0.0 or version 8.0.1, manufactured by CAC Exicare Corp.).
as §1

One may read the Ki as a measure of affinity in units of concentration, obtained from inhibition or displacement. In general, IC50 refers to the concentration at which inhibition is half-maximal. Higher therefore signals weaker potency in that assay.

T1 sequence (P50613 whole entry): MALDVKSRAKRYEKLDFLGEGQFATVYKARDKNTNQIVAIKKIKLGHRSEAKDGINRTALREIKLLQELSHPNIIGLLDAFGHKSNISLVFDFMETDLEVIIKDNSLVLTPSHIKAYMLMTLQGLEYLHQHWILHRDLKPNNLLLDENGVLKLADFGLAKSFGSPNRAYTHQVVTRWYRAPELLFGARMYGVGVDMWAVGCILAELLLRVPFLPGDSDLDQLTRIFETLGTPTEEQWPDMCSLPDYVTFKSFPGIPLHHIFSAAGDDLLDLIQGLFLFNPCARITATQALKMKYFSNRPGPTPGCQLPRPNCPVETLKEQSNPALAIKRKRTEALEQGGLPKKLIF
T1 sequence (P51946 whole entry partner): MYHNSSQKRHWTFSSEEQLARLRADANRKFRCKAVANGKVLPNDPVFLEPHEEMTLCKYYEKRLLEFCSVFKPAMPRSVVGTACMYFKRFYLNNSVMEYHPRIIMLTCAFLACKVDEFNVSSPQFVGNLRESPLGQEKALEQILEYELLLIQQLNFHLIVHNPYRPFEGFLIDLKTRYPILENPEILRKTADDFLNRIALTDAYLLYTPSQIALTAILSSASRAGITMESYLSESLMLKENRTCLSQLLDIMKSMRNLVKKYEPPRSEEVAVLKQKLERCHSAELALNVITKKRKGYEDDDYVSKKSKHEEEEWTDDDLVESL
T1 sequence (P51948 whole entry partner): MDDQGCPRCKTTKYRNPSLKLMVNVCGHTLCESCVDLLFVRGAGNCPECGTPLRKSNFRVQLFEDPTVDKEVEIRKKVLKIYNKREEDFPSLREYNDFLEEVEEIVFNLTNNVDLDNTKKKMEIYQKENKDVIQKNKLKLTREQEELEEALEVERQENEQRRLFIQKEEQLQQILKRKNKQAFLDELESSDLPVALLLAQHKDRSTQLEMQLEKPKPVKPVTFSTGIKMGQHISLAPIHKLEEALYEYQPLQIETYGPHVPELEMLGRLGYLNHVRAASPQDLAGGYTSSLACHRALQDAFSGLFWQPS

On to `CC[Si](C)(C)C(C)(C)C(=O)Nc1n[nH]c2c1CN(C(=O)N[C@H](CO)c1ccccc1)C2(C)C` [II-116, (S)-3-[2-(Ethyldimethylsilyl)-2-methylpropanamido]-N-(2-hydroxy-1-phenylethyl)-6,6-dimethyl-4,6-dihydropyrrolo[3,4-c]pyrazole-5(1H)-carboxamide], for which the Ki was at most 50 nM in assay [1], at least 1000 nM in assay [3] and at least 500 nM in assay [4]. In assay [2], the IC50 is at most 500 nM.
The like results for `CC(O)CNC(=O)N1Cc2c(NC(=O)C3([Si](C)(C)C)CCC3)n[nH]c2C1(C)C` (centres unmarked) [IV-442, N-(2-Hydroxypropyl)-6,6-dimethyl-3-[1-(trimethylsilyl)cyclobutanecarboxamido]-4,6-dihydropyrrolo[3,4-c]pyrazole-5(1H)-carboxamide] were, in that order, at most 50 nM, at least 1000 nM, at least 500 nM and at most 500 nM.
As for `CC(C)(CO)C(NC(=O)N1Cc2c(NC(=O)C3([Si](C)(C)C)CCC3)n[nH]c2C1(C)C)c1ccccc1F` (centres unmarked) [IV-890, N-[1-(2-Fluorophenyl)-3-hydroxy-2,2-dimethylpropyl]-6,6-dimethyl-3-[1-(trimethylsilyl)cyclobutanecarboxamido]-4,6-dihydropyrrolo[3,4-c]pyrazole-5(1H)-carboxamide], the IC50 in assay [2] was at most 500 nM. Further, in assay [3], the Ki is at least 1000 nM.
Take `CC(C)(O)C[C@@H](NC(=O)N1Cc2c(NC(=O)C3([Si](C)(C)C)CC3)n[nH]c2C1(C)C)c1ccccc1` [III-298, (R)—N-(3-Hydroxy-3-methyl-1-phenylbutyl)-6,6-dimethyl-3-[1-(trimethylsilyl)cyclopropanecarboxamido]-4,6-dihydropyrrolo[3,4-c]pyrazole-5(1H)-carboxamide]: the results for the inhibition constant Ki in assay [1], in assay [3] and in assay [4] were at most 50 nM, at least 1000 nM and at least 500 nM, respectively. This compound also came in with an IC50 in assay [2] of at most 500 nM.
In the same order, the values of `CC1(C)c2[nH]nc(NC(=O)C3([Si](C)(C)C)CCC3)c2CN1C(=O)NC(CO)c1ccccn1` (centres unmarked) [IV-534, N-[2-Hydroxy-1-(pyridin-2-yl)ethyl]-6,6-dimethyl-3-[1-(trimethylsilyl)cyclobutanecarboxamido]-4,6-dihydropyrrolo[3,4-c]pyrazole-5(1H)-carboxamide] are at most 50 nM, at least 1000 nM, at least 500 nM and at most 500 nM.
Compound `CC(C)(O)C[C@@H](NC(=O)N1Cc2c(NC(=O)C3([Si](C)(C)C)CCC3)n[nH]c2C1(C)C)c1ccccc1F` [IV-883, (R)—N-[1-(2-Fluorophenyl)-3-hydroxy-3-methylbutyl]-6,6-dimethyl-3-[1-(trimethylsilyl)cyclobutanecarboxamido]-4,6-dihydropyrrolo[3,4-c]pyrazole-5(1H)-carboxamide] came in with a concentration for half-maximal inhibition (IC50) in assay [2] of at most 500 nM. The inhibitory constant (Ki) in assay [3] was at least 1000 nM; in assay [4], at least 500 nM.
As for `CC1(C)c2[nH]nc(NC(=O)C3([Si](C)(C)C)CCC3)c2CN1C(=O)N[C@H](C(=O)O)c1ccccc1` [IV-403 (sodium salt), Sodium (S)-2-{6,6-dimethyl-3-[1-(trimethylsilyl)cyclobutanecarboxamido]-1,4,5,6-tetrahydropyrrolo[3,4-c]pyrazole-5-carboxamido}-2-phenylacetate], the inhibitory constant (Ki) in assay [1] was at most 50 nM; in assay [3] it was at least 1000 nM; in assay [4], at least 500 nM.
Take `CC1(C)c2[nH]nc(NC(=O)C3([Si](C)(C)C)CCC3)c2CN1C(=O)N[C@@H](CO)c1ccccc1` [IV-115, (R)—N-(2-Hydroxy-1-phenylethyl)-6,6-dimethyl-3-[1-(trimethylsilyl)cyclobutanecarboxamido]-4,6-dihydropyrrolo[3,4-c]pyrazole-5(1H)-carboxamide]: the Ki in assay [3] is at least 1000 nM; in assay [4], at least 500 nM.
